In patent US20250304625A1, “ARTICLES AND METHODS FOR INHIBITING METHIONINE AMINOPEPTIDASE ACTIVITY” (Vanderbilt University, priority 2022, published 2025):

Assays:
TKPTS cells [1] = experiment: TKPTS cell proliferation by CellTrace flow cytometry; assay type: cell-based, murine; details: Zng1 mutant cells compared to WT, 3 μM TPA, three days
Method: TKPTS cells were seeding at 2,000 to 4,000 cells per well of 24- or 12-well tissue culture treated multi-well plates and incubated overnight at 37° C. Cells were staining with CellTRACE violet (Invitrogen, C34557) as described by manufacturer's protocol. Briefly, CellTRACE solution was prepared in PBS at a 1:1,000 dilution, added to the cells, and cells were incubated for 20 min at 37° C. Cells were then washed two times in cell culture media supplemented with 7% FBS, and replaced with fresh cell culture media supplemented with desired chemical treatments (3 μM TPA, Sigma, 723134; 5 μg/ml TNP470, Sigma, T1455; or 50 nM Bengamide B, Santa cruz, sc-397521A). Stock solutions of drugs were prepared in ACS-grade DMSO (Fisher Scientific, D136). […] After three days of growth, cells were stained with MitoTracker far-red (Invitrogen, M22426; 1:2500 dilution for 20 min at 37° C.) and MitoSOX red (Molecular probes, M36008: 1,1000 for 20 min at 37° C.) following manufacture's protocols. Cells were washed with PBS, trypsinized, and transferred to Eppendorf tubes prior to fixation in 4% PFA (Alfa aesar, J61899). Cells were fixed for 20 min at room temperature, centrifuged at 200×g for 10 min and washed with PBS prior to resuspension in 300 μl FACS buffer (2% FBS, 0.02% sodium azide in PBS). All flow cytometry data were collected using a BD LSRII flow cytometer with FACSDIVA software and analyzed using FlowJo (FlowJo LLC). Samples were gated forward scatter height (FSC-H) by forward scatter area (FSC-A) and side scatter height (SSC-H) by side scatter area (SSC-A) to remove doublet populations. The singlet population was gated SSC-A by FSC-A to isolate live cells. The resulting cell population was then assessed for assay-specific fluorescent markers and the median fluorescence intensity (MFI) quantified.

cell lines = details: compared to other chelators (e.g. TPEN); cited from earlier work
TKPTS cells [2] = experiment: Seahorse XF96 cell mitochondrial stress test (oxygen consumption rate); assay type: cell-based, murine; details: Zng1^−/− cells pre-treated with 3 μM TPA
Method: 8,000 WT or Zng1 mutant vehicle treated TKPTS cells or TKPTS cells serially passaged in 3 μM TPA (Sigma, 723134) were plated in individual wells of seahorse plates in complete DMEM F12 media described above. Cells were resuspended in mitochondria assay media (Seahorse Agilent pH 7.4 media+1 mM pyruvate+10 mM glucose+2 mM glutamine). No TKPTS cells were added to the four wells in the corners of the plate as a background control. For the mitochondrial stress test, the cartridge was sequentially loaded with oligomycin (15 μM), FCCP (15 μM), and rotenone/antimycin A (5 μM) (diluted in mitochondria assay media) for injection into the wells. To normalize across wells by cell density, the Seahorse plate was imaged using a BioTek Cytation 5. Oxygen consumption and extracellular acidification rates were collected using a Seahorse XFe96 Analyzer and analyzed using Wave Desktop software (Agilent Technologies).

zng1 transcript = experiment: zng1 expression in whole zebrafish larvae (qPCR); assay type: in vivo; details: WT larvae, immersion, 20 μM TPEN vs ethanol vehicle
Method: For all experiments larval zebrafish were bred naturally and collected into embryo media and were maintained at 28° C. on a 14/10 h light/dark cycle for duration of experiments. For survival experiments, zebrafish larvae were split into even densities into 6 or 12 multi-well plates in 5 mL or 1 mL embryo media respectively at 3 dpf. Stock solutions of METAP2 inhibitor TNP-470 (Sigma, T1455) and METAP1/2 inhibitor Bengamide B (Santa cruz, sc-397521A) were prepared in ACS-grade DMSO (Fisher Scientific, D136) and TPEN (Sigma, P4413) was prepared in ethanol and stored at −20° C. TNP-470, Bengamide B, and/or TPEN were applied into embryo media as well as a DMSO and/or ethanol vehicle controls at 3 dpf. Zebrafish survival was monitored daily until 6 dpf and all moribund or dead animals were removed. […]
For RNA isolation from dissected mouse tissue, mice were humanely euthanized, tissues harvested and immediately flash frozen in liquid nitrogen and stored at −80C. […] Quantitative PCR was performed in duplicate-quadruplicate 25 μL reactions using 2× iQ SYBR Green SuperMix (BioRad, 1708882) run on an BioRad CFX96 Real-Time System instrument using gene-specific primers (zebrafish: P34-P39, mice: P40-P43, cell lines: 44-69, Table S5). Data were analyzed with the ΔΔCt method (Livak and Schmittgen, 2001) or presented as relative expression values.

Compound	proliferation (CellTrace dye retention) (TKPTS cells [1])	cytotoxicity towards cell lines (cell lines)	basal and maximal respiration, ATP production, and proton leak (OCR) (TKPTS cells [2])	zng1 transcript (zng1 transcript)
c1ccc(CN(Cc2ccccn2)Cc2ccccn2)nc1 [TPA, tris(2-pyridylmethyl)amine]	significantly slowed proliferation	lower cytotoxicity	significantly impaired	
c1ccc(CN(CCN(Cc2ccccn2)Cc2ccccn2)Cc2ccccn2)nc1 [TPEN, N,N,N′,N′-Tetrakis(2-pyridylmethyl)ethylenediamine]				significant induction
